Values of other authors in patent US20030237103A1, “Methods and compositions for pharmacological and toxicological evaluation of test agents” (priority 2002, published 2003).
Like-named read-outs stand apart in the source and are kept apart here.

Tested on: Sprague Dawley, LEW and F344 rats
Conditions: cited from earlier work

gentamicin
susceptibility to nephrotoxic effects (F344 compared with SD): more susceptible
nephrotoxic effects (protein in the urine) (LEW strain): sensitive
nephrotoxic effects (protein in the urine) (Sprague Dawley rats): resistant
